US20260199500A1, “Camptothecin Derivative, Conjugate Thereof, Preparation Method Therefor and Medical Use Thereof” (priority 2023, published 2026)

Key:
N87 gastric cancer cells = test: Inhibitory activity of compounds on N87 gastric cancer cells (CellTiter-Glo, 144 h); type: cell-based; details: IC50 of PY-X (DXD) set to 1; values are ratios of measured IC50 to DXD; 144 h
Description: (§1) On the day of the experiment, the cells were digested with 0.25% trypsin (Gibco, 25200-072), filtered through a 40 μm sieve, diluted with the corresponding medium to a cell density of 1×10^4 cells/mL, and inoculated into a 96-well white cell culture plate (Beyotime, FCP968), with 100 μL of cells added per well. The culture plate was placed in a 37° C. incubator (Thermo 311) containing 5% C02 and incubated for 24 hours. On the second day, the samples to be tested were prepared as a stock solution at a final concentration of 1M in DMSO (Sigma, D1650), then diluted with the corresponding medium to a final concentration of 200 nM, and subjected to four-fold serial dilutions, resulting in a total of 9 concentrations. 100 μL of the diluted sample was added to each well of the 96-well plate. The plate was placed in a 37° C. incubator containing 5% CO2 and incubated for 144 hours. The cell culture plate was then removed, and 100 μL of the cell viability assay reagent (CellTiter-Glo® Luminescent Cell Viability Assay, Promega, G7571) was added to each well. The reaction was carried out in the dark at room temperature for 5 minutes. Luminescence values were read using a microplate reader (TECAN SPARK), and data were processed using Graphpad Prism 7 software.
(§2) PY—Y is referenced in the document (WO2022170971A1); and PY-A is referenced in the document (WO2021148501A1).

[1] = test system: MDA-MB-468 breast cancer cells; test: Inhibitory activity of compounds on MDA-MB-468 breast cancer cells (CellTiter-Glo); type: cell-based; details: IC50 of PY-X (DXD) set to 1; values are ratios of measured IC50 to DXD
Description: as §1, §2

[2] = test system: PANC-1 (Pancreatic) cells; test: Inhibition of PANC-1 cells by compounds; type: cell-based; details: PY-X (DXD) set to 1
Description: as §1

H1650 (NSCLC) cells = test: Inhibition of H1650 cells by compounds; type: cell-based; details: PY-X (DXD) set to 1
Description: as §1

Colo-205 (Colon) cells = test: Inhibition of Colo-205 cells by compounds; type: cell-based; details: PY-X (DXD) set to 1
Description: as §1

H1437 (NSCLC) cells = test: Inhibition of H1437 cells by compounds; type: cell-based; details: PY-X (DXD) set to 1
Description: as §1

HT-29 (Colon) cells = test: Inhibition of HT-29 cells by compounds; type: cell-based; details: PY-X (DXD) set to 1
Description: as §1

[3] = test system: SW1990 (Pancreatic) cells; test: Inhibition of SW1990 cells by compounds; type: cell-based; details: PY-X (DXD) set to 1
Description: as §1

H82 (SCLC) cells = test: Inhibition of H82 cells by compounds; type: cell-based; details: PY-X (DXD) set to 1
Description: as §1

SW1573 (NSCLC) cells = test: Inhibition of SW1573 cells by compounds; type: cell-based; details: PY-X (DXD) set to 1
Description: as §1

A549 (NSCLC) cells = test: Inhibition of A549 cells by compounds; type: cell-based; details: PY-X (DXD) set to 1
Description: as §1

[4] = Log D of small molecules (1-octanol / phosphate buffer pH 2.5 and pH 7.4, LC-MS/MS); type: physicochemical
Description: (1) Preparation of 100 mM phosphate buffer (PB) solution at pH 2.5 and pH 7.4 respectively: • a. Preparation of a solution of 100 mM H3PO4 in water: 14.7 M H3PO4 was diluted with water to a concentration of 100 mM H3PO4, and the pH was measured to be approximately 1.8. • b. Preparation of 100 mM NaH2PO4: 5.999 g of NaH2PO4 was dissolved in 500 mL of water and the pH was measured to be approximately 4.5. • c. Preparation of 100 mM Na2HPO4: 7.098 g of Na2HPO4 was dissolved in water to a volume of 500 mL and the pH was measured to be approximately 9.4. • d. Preparation of 100 mM PB (pH 2.5): 15 mL of 100 mM H3PO4 was added to a 50 mL tube, and then pH was adjusted to 2.5±0.05 with 100 mM NaH2PO4. • d. Preparation of 100 mM PB (pH 7.4): 15 mL of 100 mM Na2HPO4 was added to a 50 mL tube, and then pH was adjusted to 7.4±0.05 with 100 mM NaH2PO4.
(2) Saturation of PBs (pH 2.5 and pH 7.4) with 1-octanol: 10 mL of 1-octanol was added to 100 mL of 100 mM PBs (pH 2.5 and pH 7.4), and the mixture was shaken vigorously, and then allowed to stand overnight at room temperature for later use.
(3) Saturation of 1-octanol with PBs (pH 2.5 and pH 7.4): 10 mL of 100 mM PBs (pH 2.5 and pH 7.4) was added to 100 mL of 1-octanol, and the mixture was shaken vigorously, and then allowed to stand overnight at room temperature for later use.
2.1) 2 μL of 10 mM DMSO stock solution of the test compound were dispensed into test tubes, in duplicate.
2.2) 149 μL of PB saturated with 1-octanol (pH 2.5 and 7.4) were added to the tubes.
2.3) 149 μL of PB (pH 2.5 and 7.4) saturated with 1-octanol were added to the corresponding tubes.
2.4) Each tube was vigorously mixed for 2 minutes, then shaken at 800 rpm for 1 hour at room temperature.
2.5) The tubes were centrifuged at 4000 rpm for 5 minutes at room temperature.
2.6) Appropriate volumes of the buffer phase and 1-octanol phase samples were aliquoted.
2.7) These samples were diluted and analyzed using LC-MS/MS without running a calibration curve.
2.8) Data analysis: The log D value of each compound was calculated using the following formula: f

Row | Compound | IC50 on N87 cells, ratio to DXD (N87 gastric cancer cells) | IC50 on 468 cells, ratio to DXD [1] | IC50 in PANC-1 cells, ratio to DXD [2] | IC50 in H1650 cells, ratio to DXD (H1650 (NSCLC) cells) | IC50 in Colo-205 cells, ratio to DXD (Colo-205 (Colon) cells) | IC50 in H1437 cells, ratio to DXD (H1437 (NSCLC) cells) | IC50 in HT-29 cells, ratio to DXD (HT-29 (Colon) cells) | IC50 in SW1990 cells, ratio to DXD [3] | IC50 in H82 cells, ratio to DXD (H82 (SCLC) cells) | IC50 in SW1573 cells, ratio to DXD (SW1573 (NSCLC) cells) | IC50 in A549 cells, ratio to DXD (A549 (NSCLC) cells) | Log D2.5 (Oct/buff) Result ([4]; 1-octanol / phosphate buffer pH 2.5) | Log D7.4 (Oct/buff) Result ([4]; 1-octanol / phosphate buffer pH 7.4)
1 | CC[C@@]1(O)C(=O)OCc2c1cc1n(c2=O)Cc2c-1nc1cc(F)c(C)c3c1c2[C@@H](CC(=O)NCCO)CC3 [PY-25B, 2-((1R,9S)-9-9-ethyl-5-fluoro-9-hydroxy-4-methyl-10,13-dioxo-2,3,9,10,13,15-hexahydro-1H,12H-benzo[de]pyrano[3′,4′:6,7]indolizino[1,2-b]quinolin-1-yl)-N-(2-hydroxyethyl)acetamide] | 2.9428 | 1.3101 | – | – | – | – | – | – | – | – | – | – | –
2 | CC[C@@]1(O)C(=O)OCc2c1cc1n(c2=O)Cc2c-1nc1cc(F)c(COC(=O)NCCO)c3c1c2CCC3 [PY-27(10Car), (S)-(9-ethyl-5-fluoro-9-hydroxy-10,13-dioxy-2,3,9,10,13,15-hexahydro-1H,12H-benzo[d]pyrano[3′,4′:6,7]indolizino[1,2-b]quinolin-4-yl)methyl(2-hydroxyethyl)carbamate] | 3.3500 | 3.7610 | – | – | – | – | – | – | – | – | – | – | –
3 | CC[C@@]1(O)C(=O)OCc2c1cc1n(c2=O)Cc2c-1nc1cc(Cl)c(CN)c3c1c2CCC3 [PY-36, (S)-4-(aminomethyl) 5-chloro-9-ethyl-9-hydroxy-1,2,3,9,12,15-hexahydro-10 h,13 h-benzo[de]pyrano[3′,4′:6,7]indolizino[1,2-b]quinolin-10,13-dione] | – | – | 0.6317 | 0.8758 | 0.9857 | 1.1187 | 0.4909 | 1.3305 | 1.5585 | 0.7619 | 0.4500 | – | –
4 | CC[C@@]1(O)C(=O)OCc2c1cc1n(c2=O)Cc2c-1nc1cc(Cl)c(CO)c3c1c2CCC3 [PY-37, (S)-5-chloro-9-ethyl-9-hydroxy-4-(hydroxymethyl)-1,2,3,9,12,15-hexahydro-10 h,13 h-benzo[de]pyrano[3′,4′:6,7]indolizino[1,2-b]quinolin-10,13-dione] | – | – | 0.3514 | 0.7310 | 0.6449 | 0.9440 | 0.4700 | 0.7777 | 1.1563 | 0.6712 | 0.4179 | – | –
5 | CC[C@@]1(O)C(=O)OCc2c1cc1n(c2=O)Cc2c-1nc1ccc(CO)c3c1c2CCC3 [PY-37A, (S)-9-ethyl-9-hydroxy-4-(hydroxymethyl)-1,2,3,9,12,15-hexahydro-10 h,13 h-benzo[de]pyrano[3′,4′:6,7]indolizino[1,2-b]quinolin-10,13-dione] | – | – | 0.1992 | 0.2611 | 0.2763 | 0.2619 | 0.2181 | 0.2986 | 0.4153 | 0.2884 | 0.2044 | – | –
6 | CC[C@@]1(O)C(=O)OCc2c1cc1n(c2=O)Cc2c-1nc1cc(F)c(C)c3c1c2[C@@H](NC(=O)CO)CC3 [PY-X (DXD), exatecan DXD, reference compound] | 1.0000 | 1.0000 | – | – | – | – | – | – | – | – | – | 1.68 | 1.67
7 | (S)-9-ethyl-5-fluoro-9-hydroxy-1,2,3,9,12,15-hexahydro-10H,13H-benzo[de]pyrano[3′,4′: 6,7]indolizino[1,2-b]quinolin-10,13-dione [PY-10B] | 0.1623 | 0.4362 | – | – | – | – | – | – | – | – | – | – | –
